# Source: patent publication US7227038B2, “Adamantane derivatives, processes for their preparation and pharmaceutical composition containing them” (AstraZeneca AB, priority 2003, dated 2007)
# Structures can show the parent of a compound that is named as a salt.
# Test system: not given
# Test: not given
# Conditions: not given
row,melting point,SMILES
1,196 °C,CNC[C@@H](O)Cc1ccc(Cl)c(C(=O)NCC23CC4CC(CC(C4)C2)C3)c1 (as salt: hydrochloride)
2,218 °C,CCNC[C@H](O)Cc1ccc(Cl)c(C(=O)NCC23CC4CC(CC(C4)C2)C3)c1 (as salt: hydrochloride)
3,214 °C,"CCNC[C@@H](O)Cc1ccc(Cl)c(C(=O)NCC23CC4CC(CC(C4)C2)C3)c1 (as salt: hydrochloride) [Example 14, 2-Chloro-5-[(2S)-3-(ethylamino)-2-hydroxypropyl]-N-(tricyclo [3.3.1.1^3,7]dec-1-ylmethyl)-benzamide, hydrochloride salt]"
4,> 200 °C (dec.),"CNC[C@@H](O)CCc1ccc(Cl)c(C(=O)NCC23CC4CC(CC(C4)C2)C3)c1.Cl [Example 1, 2-Chloro-5-[(3S)-3-hydroxy-4-(methylamino)butyl]-N-(tricyclo[3.3.1.1^3,7]dec-1-ylmethyl)benzamide, hydrochloride]"

# The remaining lines, values behind:
row,SMILES,melting point
1,CC(C)NC[C@H](O)Cc1ccc(Cl)c(C(=O)NCC23CC4CC(CC(C4)C2)C3)c1 (as salt: hydrochloride),189 °C
2,O=C(NCC12CC3CC(CC(C3)C1)C2)c1cc(C[C@@H](O)CNCCCO)ccc1Cl (as salt: hydrochloride),225 °C

# Molecular target: T1, P2X7 receptor (Homo sapiens, UniProt Q99572)
# T1 construct: 200 μl of a suspension of THP-1 cells; endogenous in cells; host or cells: THP-1 cells
# T1 sequence (Q99572 1-595): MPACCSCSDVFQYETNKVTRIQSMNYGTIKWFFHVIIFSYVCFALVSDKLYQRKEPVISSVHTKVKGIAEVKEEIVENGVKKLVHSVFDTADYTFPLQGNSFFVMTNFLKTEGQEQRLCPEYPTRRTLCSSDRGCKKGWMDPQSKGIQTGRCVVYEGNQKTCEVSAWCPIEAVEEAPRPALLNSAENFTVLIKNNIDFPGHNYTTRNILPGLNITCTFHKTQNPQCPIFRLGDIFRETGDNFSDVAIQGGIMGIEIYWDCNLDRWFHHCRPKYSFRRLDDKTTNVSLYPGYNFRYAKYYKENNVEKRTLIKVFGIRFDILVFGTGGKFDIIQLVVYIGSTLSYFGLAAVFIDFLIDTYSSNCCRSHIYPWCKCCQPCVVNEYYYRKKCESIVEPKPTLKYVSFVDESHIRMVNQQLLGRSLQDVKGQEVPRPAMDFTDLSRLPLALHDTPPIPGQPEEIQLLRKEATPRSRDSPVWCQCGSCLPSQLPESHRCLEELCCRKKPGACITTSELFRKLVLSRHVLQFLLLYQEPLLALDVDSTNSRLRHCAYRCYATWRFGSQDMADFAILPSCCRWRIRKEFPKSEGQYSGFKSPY
# Test: bbATP-induced ethidium bromide uptake (fluorescence) in THP-1 cells, P2X7 receptor antagonist activity
# Format: cell-based
# Conditions: 10^-5M bbATP, 37° C. for one hour, read-out: pIC50 (negative logarithm of the concentration of test compound necessary to reduce the bbATP agonist activity by 50%) (converted)
# Excerpt: Certain compounds such as benzoylbenzoyl adenosine triphosphate (bbATP) are known to be agonists of the P2X7 receptor, effecting the formation of pores in the plasma membrane (Drug Development Research (1996), 37(3), p.126). Consequently, when the receptor is activated using bbATP in the presence of ethidium bromide (a fluorescent DNA probe), an increase in the fluorescence of intracellular DNA-bound ethidium bromide is observed. The increase in fluorescence can be used as a measure of P2X7 receptor activation and therefore to quantify the effect of a compound on the P2X7 receptor.
# In this manner, each of the title compounds of the Examples was tested for antagonist activity at the P2X7 receptor. Thus, the test was performed in 96-well flat bottomed microtitre plates, the wells being filled with 250 μl of test solution comprising 200 μl of a suspension of THP-1 cells (2.5×10^6 cells/ml) containing 10^−4M ethidium bromide, 25 μl of a high potassium buffer solution containing 10^−5M bbATP, and 25 μl of the high potassium buffer solution containing 3×10^−5M test compound. The plate was covered with a plastics sheet and incubated at 37° C. for one hour. The plate was then read in a Perkin-Elmer fluorescent plate reader, excitation 520 nm, emission 595 nm, slit widths: Ex 15 nm, Em 20 nm. […]
row,IC50,SMILES
1,10 nM,"CNC[C@@H](O)CCc1ccc(Cl)c(C(=O)NCC23CC4CC(CC(C4)C2)C3)c1.Cl [Example 1, 2-Chloro-5-[(3S)-3-hydroxy-4-(methylamino)butyl]-N-(tricyclo[3.3.1.1^3,7]dec-1-ylmethyl)benzamide, hydrochloride]"
2,3.98 nM,"CN(C)C[C@H](O)Cc1ccc(Cl)c(C(=O)NCC23CC4CC(CC(C4)C2)C3)c1 [Example 8, 2-Chloro-5-[(2R)-3-(dimethylamino)-2-hydroxypropyl]-N-(tricyclo[3.3.1.1^3,7]dec-1-ylmethyl)-benzamide, hydrochloride]"
